From patent US20060281719A1, “Oestrogen-17-sulphamates as inhibitors of steroid sulphatase” (priority 2000, published 2006)

Columns and labels:
[1] = Plate assay % inhibition; type: cell-based; settings: -ve % means stimulation
[2] = target: T1, oestrone sulphatase (E1-STS) (Homo sapiens, UniProt P08842); assay: Inhibition of steroid sulphatase (E1-STS) activity in intact MCF-7 breast cancer cells; type: cell-based
T1 sequence (P08842 22-583): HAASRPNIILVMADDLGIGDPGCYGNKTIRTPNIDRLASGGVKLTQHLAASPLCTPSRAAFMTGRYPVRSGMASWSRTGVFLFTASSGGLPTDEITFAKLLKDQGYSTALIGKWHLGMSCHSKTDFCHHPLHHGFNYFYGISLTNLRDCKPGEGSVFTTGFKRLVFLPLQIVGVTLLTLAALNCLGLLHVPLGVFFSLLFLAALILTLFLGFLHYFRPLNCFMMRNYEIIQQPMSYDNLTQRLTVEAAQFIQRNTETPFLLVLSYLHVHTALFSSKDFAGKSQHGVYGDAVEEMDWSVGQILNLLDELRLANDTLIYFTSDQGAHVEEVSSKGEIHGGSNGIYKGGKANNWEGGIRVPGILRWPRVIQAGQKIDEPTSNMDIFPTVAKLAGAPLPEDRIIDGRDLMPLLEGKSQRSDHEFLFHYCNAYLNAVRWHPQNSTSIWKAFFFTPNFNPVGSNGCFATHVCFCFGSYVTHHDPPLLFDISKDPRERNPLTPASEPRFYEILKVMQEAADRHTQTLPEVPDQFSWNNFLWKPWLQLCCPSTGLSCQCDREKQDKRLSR

[3] = target: T1, oestrone sulphatase (E1-STS); assay: Inhibition of steroid sulphatase activity in placental microsomes; type: biochemical; design: from tissue; host or cells: human term placenta (microsomal preparation)

% Inhibition of E1-STS activity in MCF-7 cells ([2]; 0.1 μM) | % Inhibition of E1-STS activity in MCF-7 cells ([2]; 1 μM) | % Inhibition of E1-STS activity in MCF-7 cells ([2]; 10 μM) | % Inhibition of E1-STS activity in placental microsomes ([3]; 10 μM) | % Inhibition of E1-STS activity in placental microsomes ([3]; 25 µM) | % Inhibition of E1-STS activity in placental microsomes ([3]; 50 µM) | % Inhibition of E1-STS activity in placental microsomes ([3]; 100 µM) | SMILES | further results
 |  |  |  |  |  |  | CCCCCN(CCCCC)S(=O)(=O)O[C@@H]1CC[C@H]2[C@@H]3CCc4cc(OS(N)(=O)=O)ccc4[C@H]3CC[C@]12C [BLE00083B, 3-O-Sulfamoyl-estra-1,3,5(10)-trien-17α-O—(N,N-dipentyl)sulfamate] | Plate assay % inhibition ([1]; 0.1 μM): 8%; Plate assay % inhibition ([1]; 10 μM): 24%
<10% | 16.3 ± 1.5% | 64.1 ± 1.1% | <10% | 15.9 ± 0.9% | 32.5 ± 1.1% | 60.1 ± 3.4% | NS(=O)(=O)Oc1ccc(C23CC4CC(CC(c5ccc(O)cc5)(C4)C2)C3)cc1 [Compound 21, 4′-hydroxy-(1,3-adamantanediyl)diphenyl-4-O-sulphamate] | 
 |  |  |  |  |  |  | C[C@]12CCC3c4ccc(OCc5ccccc5)cc4CCC3C1CC[C@H]2OS(=O)(=O)N(Cc1ccccc1)Cc1ccccc1 (stereo partly drawn) | melting point: 115 to 116 °C
34.8 ± 1.7% | 83.8 ± 0.5% | 96.7 ± 1.0% | 62.1 ± 1.4% | 82.0 ± 0.4% | 88.1 ± 0.3% | 92.8 ± 0.2% | NS(=O)(=O)Oc1ccc(C(=O)c2ccc(O)cc2)cc1 [Compound 5, 4′-Hydroxybenzophenone-4-O-sulphamate] | 
22.2 ± 0.1% | 50.01 ± 0.1% | 93.3 ± 0.1% | 22.1 ± 0.6% | 29.4 ± 0.1% | 38.7 ± 4.9% | 53.1 ± 0.1% | NS(=O)(=O)Oc1ccc(Cc2ccc(OS(N)(=O)=O)cc2)cc1 [Compound 18, 4,4′-Bis-sulphamoyloxydiphenylmethane] | 
 |  |  |  |  |  |  | C[C@]12CCC3c4ccc(OCc5ccccc5)cc4CCC3C1CC[C@H]2OS(N)(=O)=O (stereo partly drawn) | melting point: 91 to 93 °C
 |  |  |  |  |  |  | CN(C)S(=O)(=O)O[C@H]1CCC2C3CCc4cc(OCc5ccccc5)ccc4C3CC[C@@]21C (stereo partly drawn) | melting point: 117 to 121 °C
 |  |  |  |  |  |  | C[C@]12CCC3c4ccc(OS(N)(=O)=O)cc4CCC3C1CC[C@H]2OS(=O)(=O)N(Cc1ccccc1)Cc1ccccc1 (stereo partly drawn) [BLE99068, 3-O-Sulfamoyl-estra-1,3,5(10)-trien-17α-O—(N,N-dibenzyl)sulfamate] | inhibition at 0.01 µM ([3]; 10 nM, -ve % means stimulation, read-out: Placental Microcsomes % inhibition): 4.9%; inhibition at 1 µM ([3]; 1 μM, -ve % means stimulation, read-out: Placental Microcsomes % inhibition): 58.2%; inhibition at 0.1 µM ([1]; 0.1 μM): -18%; inhibition at 1 µM [1]: -1%; inhibition at 10 µM ([1]; 10 μM): 19%
 |  |  |  |  |  |  | CC1=C2CCC3c4ccc(OS(N)(=O)=O)cc4CCC3C2CC1 (stereo not drawn) | melting point: 172 to 176 °C
 |  |  |  |  |  |  | COc1cc2c(cc1OS(N)(=O)=O)CCC1C2CCC2(C)C1CCC2(O)Cc1ccc(C(C)(C)C)cc1 (stereo not drawn) [BLE01016] | inhibition at 0.1 µM ([1]; 0.1 μM): -14%; inhibition at 1 µM [1]: -10%; inhibition at 10 µM ([1]; 10 μM): -3%
 |  |  |  |  |  |  | C[C@]12CC[C@@H]3c4ccc(OS(N)(=O)=O)cc4CC[C@H]3[C@@H]1CC[C@@H]2O [BLE00084] | Plate assay % inhibition ([1]; 0.1 μM): 4%; Plate assay % inhibition ([1]; 10 μM): 23%
<10% | 50.6 ± 3.3% | 87.4 ± 2.7% | 65.0 ± 1.8% | 85.5 ± 0.6% | 92.3 ± 0.3% | 95.4 ± 0.2% | NS(=O)(=O)Oc1ccc(S(=O)(=O)c2ccc(OS(N)(=O)=O)cc2)cc1 [Compound 14, Sulphonyldiphenyl-4,4′-O,O-bis-sulphamate] | 

SMILES | % Inhibition of E1-STS activity in MCF-7 cells ([2]; 0.1 μM) | % Inhibition of E1-STS activity in MCF-7 cells ([2]; 1 μM) | % Inhibition of E1-STS activity in MCF-7 cells ([2]; 10 μM) | % Inhibition of E1-STS activity in placental microsomes ([3]; 10 μM) | % Inhibition of E1-STS activity in placental microsomes ([3]; 25 µM) | % Inhibition of E1-STS activity in placental microsomes ([3]; 50 µM) | % Inhibition of E1-STS activity in placental microsomes ([3]; 100 µM) | further results
NS(=O)(=O)Oc1ccc(C=CC(=O)c2ccccc2)cc1 [Compound 7, Chalcone-4-O-sulphamate] | <10% | 24.34 ± 11.89% | 83.81 ± 0.17% | 47.41 ± 0.05% |  | 75.11 ± 1.37% | 82.77 ± 0.23% | 
NS(=O)(=O)Oc1ccc2oc3ccccc3c2c1 [Compound 9, Dibenzofuran-2-O-sulphamate] | 21.3 ± 1.5% | 67.9 ± 1.9% | 97.1 ± 0.8% | 28.8 ± 3.2% | 48.5 ± 0.5% | 62.0 ± 2.8% | 75.8 ± 1.2% | 
NS(=O)(=O)Oc1cccc(C(=O)c2cccc(OS(N)(=O)=O)c2)c1 [Compound 28, Benzophenone-3,3′-O,O-bis-sulphamate] | 75.3 ± 0.8% | 98.4 ± 0.3% | 99.9 ± 0.1% | 51.1 ± 3.7% | 73.6 ± 1.9% | 84.1 ± 1.9% |  | 
